Measured values reported in patent US12336981B2, “Compounds and compositions for the inhibition of NAMPT” (Valo Health, Inc., priority 2010, dated 2025).
Where two headings read alike, the source gives them in different places.

What was measured:
A2780 cells = test: In-vitro cell proliferation assay (SRB), A2780 cells; assay type: cell-based; conditions: Homo sapiens, A2780, 72 h, A2780 cells, 72 hours, read-out: A2780 IC50
Summary of the method: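 Growth inhibition was derived from background-corrected SRB absorbance (570 nm), measured on cells fixed in 6% TCA after three days of compound treatment under 5% CO2 at 37° C.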

NAMPT = molecular target: T1, NAMPT (Homo sapiens, UniProt P43490); test: Biochemical inhibition assay: NAMPT enzymatic reaction, NMN quantified by mass spectrometry; conditions: read-out: Biochem IC50
T1 construct: His tag; host or cells: E. coli
T1 sequence (P43490 whole entry): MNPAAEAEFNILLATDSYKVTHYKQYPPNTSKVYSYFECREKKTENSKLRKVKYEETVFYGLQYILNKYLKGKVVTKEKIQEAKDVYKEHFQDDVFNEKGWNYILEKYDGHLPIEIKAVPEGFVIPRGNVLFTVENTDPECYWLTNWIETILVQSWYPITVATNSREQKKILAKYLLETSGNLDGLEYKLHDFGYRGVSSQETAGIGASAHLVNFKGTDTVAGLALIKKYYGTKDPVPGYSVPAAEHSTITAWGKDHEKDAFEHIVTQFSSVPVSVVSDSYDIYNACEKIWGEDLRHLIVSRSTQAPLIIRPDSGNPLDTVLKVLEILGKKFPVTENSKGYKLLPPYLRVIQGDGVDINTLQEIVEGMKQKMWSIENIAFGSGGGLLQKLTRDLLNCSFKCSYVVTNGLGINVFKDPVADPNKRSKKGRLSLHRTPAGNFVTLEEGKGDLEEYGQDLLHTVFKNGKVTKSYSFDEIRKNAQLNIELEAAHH
Summary of the method: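 Inhibition of E. coli-expressed His-tagged human NAMPT, measured as NMN formation by mass spectrometry after a 30 min room-temperature reaction containing 1 μM NAM, 100 μM PRPP and 2.5 mM ATP.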

| Structure (SMILES) | IC50 (A2780 cells; SRB) [nM] | IC50 (NAMPT; NAMPT enzymatic assay) [nM] | IC50 (NAMPT; NAMPT enzymatic reaction) [nM] | IC50 (A2780 cells; SRB assay) [nM] |
| --- | --- | --- | --- | --- |
| COc1cncc(S(=O)(=O)c2ccc(CNC(=O)c3cc4ccncc4s3)cc2)c1 [N-{[4-(5-methoxypyridine-3-sulfonyl)phenyl]methyl}thieno[2,3-c]pyridine-2-carboxamide] | 1.6 | 9 | – | – |
| COc1cc(F)c(F)cc1S(=O)(=O)c1ccc(CNC(=O)c2cnc3nccn3c2)cc1 | 24.9 | – | 11.9 | – |
| CCc1cccc(S(=O)(=O)c2ccc(CNC(=O)c3ccc4nccn4c3)cc2)c1 [N-({4-[(3-ethylbenzene)sulfonyl]phenyl}methyl)imidazo[1,2-a]pyridine-6-carboxamide] | 3.23 | – | 4.83 | – |
| CCc1ccc(S(=O)(=O)c2ccc(CNC(=O)c3cc4ccncc4o3)cc2)cc1 [N-({4-[(4-ethylbenzene)sulfonyl]phenyl}methyl)furo[2,3-c]pyridine-2-carboxamide] | 7 | – | 5 | – |
| Cc1ccc(Cl)c(S(=O)(=O)c2ccc(CNC(=O)c3cc4ccncc4s3)cc2)c1Cl [N-({4-[(2,6-dichloro-3-methylbenzene)sulfonyl]phenyl}methyl)thieno[2,3-c]pyridine-2-carboxamide] | 8.2 | – | 4.4 | – |
| O=C(NCc1ccc(S(=O)(=O)c2ccc(N3CCOCC3)cc2)cc1)c1cc2ccncc2s1 | 1.5 | 1.6 | – | – |
| Cn1ncc2ccc(S(=O)(=O)c3ccc(CNC(=O)c4cc5ccncc5o4)cc3)cc21 [N-{[4-(1-methyl-1H-indazole-6-sulfonyl)phenyl]methyl}furo[2,3-c]pyridine-2-carboxamide] | 3.4 | 4.7 | – | – |
| Cc1nc(S(=O)(=O)c2ccc(CNC(=O)c3cc4ccncc4o3)cc2)ccc1F [N-{[4-(5-fluoro-6-methylpyridine-2-sulfonyl)phenyl]methyl}furo[2,3-c]pyridine-2-carboxamide] | 12.4 | 6.2 | – | – |
| Cc1ccncc1S(=O)(=O)c1ccc(CNC(=O)c2cc3ccncc3s2)cc1 [N-{[4-(4-methylpyridine-3-sulfonyl)phenyl]methyl}thieno[2,3-c]pyridine-2-carboxamide] | 22.5 | 29.2 | – | – |
| O=C(NCc1ccc(S(=O)(=O)c2cncc(Cl)c2)cc1)c1cnc2[nH]ncc2c1 [N-{[4-(5-chloropyridine-3-sulfonyl)phenyl]methyl}-1H-pyrazolo[3,4-b]pyridine-5-carboxamide] | 6.2 | 23.8 | – | – |
| CCOc1ccccc1S(=O)(=O)c1ccc(CNC(=O)c2cnc3nccn3c2)cc1 | 7.1 | – | 1 | – |
| CCOc1ccc(S(=O)(=O)c2ccc(CNC(=O)c3cc4cnccc4[nH]3)cc2)cc1F | 5.4 | – | 20.5 | – |
| Cn1ncc(S(=O)(=O)c2ccc(CNC(=O)c3cnc4[nH]ncc4c3)cc2)c1C(F)(F)F [N-({4-[1-methyl-5-(trifluoromethyl)-1H-pyrazole-4-sulfonyl]phenyl}methyl)-1H-pyrazolo[3,4-b]pyridine-5-carboxamide] | 43.4 | 53.4 | – | – |
| CCCOc1ccc(Cl)cc1S(=O)(=O)c1ccc(CNC(=O)c2cc3cnccc3[nH]2)cc1 | 1.2 | – | 7.5 | – |
| COc1cc(S(=O)(=O)c2ccc(CNC(=O)c3cnc4nccn4c3)cc2)ccc1Cl | 5.2 | – | 2.7 | – |
| Cc1ccc(S(=O)(=O)c2ccc(CNC(=O)c3cnc4nccn4c3)cc2)cc1C | 1.6 | – | 1.1 | – |
| O=C(NCc1ccc(S(=O)(=O)c2cncc3ccccc23)cc1)c1cc2cnccc2[nH]1 [N-{[4-(isoquinoline-4-sulfonyl)phenyl]methyl}-1H-pyrrolo[3,2-c]pyridine-2-carboxamide] | 1.6 | 10.9 | – | – |
| CCNC(=O)c1ccc(S(=O)(=O)c2ccc(CNC(=O)c3cc4cnccc4[nH]3)cc2)cc1 | 14.1 | 14.5 | – | – |
| COc1ccc(OC)c(S(=O)(=O)c2ccc(CNC(=O)c3cnc4nccn4c3)cc2)c1 [N-({4-[(2,5-dimethoxybenzene)sulfonyl]phenyl}methyl)imidazo[1,2-a]pyrimidine-6-carboxamide] | 45.7 | – | 6.9 | – |
| COc1cc(S(=O)(=O)c2ccc(CNC(=O)c3cnc4nccn4c3)cc2)ccc1C | 1.7 | – | 1.3 | – |
| CC(C)COc1cccc(S(=O)(=O)c2ccc(CNC(=O)c3cnc4nccn4c3)cc2)c1 | 13.2 | 3.9 | – | – |
| CC(C)NC(=O)c1cccc(S(=O)(=O)c2ccc(CNC(=O)c3ccc4nccn4c3)cc2)c1 | 50.4 | 22.2 | – | – |
| COc1ccc(F)cc1S(=O)(=O)c1ccc(CNC(=O)c2cc3cnccc3[nH]2)cc1 [N-({4-[(5-fluoro-2-methoxybenzene)sulfonyl]phenyl}methyl)-1H-pyrrolo[3,2-c]pyridine-2-carboxamide] | – | – | 5 | 3 |
| COc1ccc(C(C)=O)cc1S(=O)(=O)c1ccc(CNC(=O)c2ccc3nccn3c2)cc1 [N-({4-[(5-acetyl-2-methoxybenzene)sulfonyl]phenyl}methyl)imidazo[1,2-a]pyridine-6-carboxamide] | 12.7 | – | 37.9 | – |

| Structure (SMILES) | IC50 (A2780 cells; SRB) [nM] | IC50 (NAMPT; NAMPT enzymatic assay) [nM] | IC50 (NAMPT; NAMPT enzymatic reaction) [nM] | IC50 (A2780 cells; SRB assay) [nM] |
| --- | --- | --- | --- | --- |
| COc1ccc(F)cc1S(=O)(=O)c1ccc(CNC(=O)c2cc3ccncc3o2)cc1 | 12.4 | – | 2.2 | – |
| CC(C)Oc1ccc(Cl)cc1S(=O)(=O)c1ccc(CNC(=O)c2cnc3[nH]ncc3c2)cc1 [N-[(4-{[5-chloro-2-(propan-2-yloxy)benzene]sulfonyl}phenyl)methyl]-1H-pyrazolo[3,4-b]pyridine-5-carboxamide] | 27.1 | 67.8 | – | – |
| COCc1cccc(S(=O)(=O)c2ccc(CNC(=O)c3cc4ccncc4o3)cc2)c1 | 13.4 | 18.5 | – | – |
| CCOc1cc(S(=O)(=O)c2ccc(CNC(=O)c3cnc4nccn4c3)cc2)ccc1F [N-({4-[(3-ethoxy-4-fluorobenzene)sulfonyl]phenyl}methyl)imidazo[1,2-a]pyrimidine-6-carboxamide] | 7.8 | – | 0.3 | – |
| COc1ccc(C(C)=O)cc1S(=O)(=O)c1ccc(CNC(=O)c2cc3ccncc3o2)cc1 | 3.8 | – | 7.2 | – |
| COc1ccc(S(=O)(=O)c2ccc(CNC(=O)c3cc4ccncc4o3)cc2)cc1Cl [N-({4-[(3-chloro-4-methoxybenzene)sulfonyl]phenyl}methyl)furo[2,3-c]pyridine-2-carboxamide] | 1.8 | – | 7.3 | – |
| Cc1cc(C(F)(F)F)ccc1S(=O)(=O)c1ccc(CNC(=O)c2cc3cnccc3[nH]2)cc1 | 25.3 | 30.5 | – | – |
| O=C(NCc1ccc(S(=O)(=O)c2ccc(C(F)(F)F)c(F)c2)cc1)c1cnc2nccn2c1 | 6.9 | 4.1 | – | – |
| O=C(NCc1ccc(S(=O)(=O)c2cnc3n2CCCCC3)cc1)c1cc2ccncc2s1 [N-[(4-{5H,6H,7H,8H,9H-imidazo[1,2-a]azepine-3-sulfonyl}phenyl)methyl]thieno[2,3-c]pyridine-2-carboxamide] | 0.8 | 3 | – | – |
| O=C(NCc1ccc(S(=O)(=O)c2cnc3ccccc3c2)cc1)c1cnc2[nH]ncc2c1 [N-{[4-(quinoline-3-sulfonyl)phenyl]methyl}-1H-pyrazolo[3,4-b]pyridine-5-carboxamide] | 4.4 | 5.2 | – | – |
| CCCOc1ccc(S(=O)(=O)c2ccc(CNC(=O)c3cc4cnccc4[nH]3)cc2)c(C)c1 | 22.1 | – | 30.5 | – |
| COc1ccc(OC(F)(F)F)cc1S(=O)(=O)c1ccc(CNC(=O)c2cc3cnccc3[nH]2)cc1 | 6.6 | 48.1 | – | – |
| Cc1ccc(S(=O)(=O)c2ccc(CNC(=O)c3cnc4[nH]ncc4c3)cc2)s1 [N-{[4-(5-methylthiophene-2-sulfonyl)phenyl]methyl}-1H-pyrazolo[3,4-b]pyridine-5-carboxamide] | 34.7 | 22.3 | – | – |
| O=C(NCc1ccc(S(=O)(=O)c2cccc3c2oc2ccccc23)cc1)c1cnc2[nH]ncc2c1 | 7.52 | 21 | – | – |
| CCCOc1ccc(S(=O)(=O)c2ccc(CNC(=O)c3cc4ccncc4s3)cc2)cc1F | 8.1 | – | 3.7 | – |
| CS(=O)(=O)c1ccc(S(=O)(=O)c2ccc(CNC(=O)c3ccc4nccn4c3)cc2)cc1 [N-({4-[(4-methanesulfonylbenzene)sulfonyl]phenyl}methyl)imidazo[1,2-a]pyridine-6-carboxamide] | 24.7 | – | 105 | – |
| Cc1ccc(C)c(S(=O)(=O)c2ccc(CNC(=O)c3cc4cnccc4[nH]3)cc2)c1 [N-({4-[(2,5-dimethylbenzene)sulfonyl]phenyl}methyl)-1H-pyrrolo[3,2-c]pyridine-2-carboxamide] | – | – | 11 | 14 |
| Cc1cc(Cl)ccc1S(=O)(=O)c1ccc(CNC(=O)c2cc3cnccc3[nH]2)cc1 [N-({4-[(4-chloro-2-methylbenzene)sulfonyl]phenyl}methyl)-1H-pyrrolo[3,2-c]pyridine-2-carboxamide] | – | – | 27 | 25 |
| O=C(NCc1ccc(S(=O)(=O)c2cccc(N3CCCCC3)c2)cc1)c1ccc2ncsc2c1 | 100 to 1000 | 21 | – | – |
| O=C(NCc1ccc(S(=O)(=O)c2cc(F)cc(Cl)c2)cc1)c1cc2cnccc2[nH]1 | 1.4 | – | 9.9 | – |
| COc1cc(Cl)ccc1S(=O)(=O)c1ccc(CNC(=O)c2ccc3nccn3c2)cc1 [N-({4-[(4-chloro-2-methoxybenzene)sulfonyl]phenyl}methyl)imidazo[1,2-a]pyridine-6-carboxamide] | 12.6 | – | 18.7 | – |
| CN(C)S(=O)(=O)c1cccc(S(=O)(=O)c2ccc(CNC(=O)c3cnc4nccn4c3)cc2)c1 | 11.2 | 2 | – | – |
| O=C(NCc1ccc(S(=O)(=O)c2ccc(OCC(F)(F)F)c(F)c2)cc1)c1ccc2nccn2c1 | 8 | 15 | – | – |
